These are literature values, as cited in article PMC3591511 (Expert reviews in molecular medicine, 2012).

Each structure is given as a SMILES string.

The target of data set [1] is IL-2/IL-2Rα. The conditions noted are these: antagonist of IL-2/IL-2α receptor interaction; ref [53].
In data set [2] the test system is p53-MDM2 complex.

For `CC(C)C[C@@H](N=C(N)N)C(=O)NCC(=O)N1CCC(c2cc(-c3ccc(OCc4ccc(C(=O)O)o4)c(Cl)c3Cl)nn2C)CC1` [SP4206], the Ki in data set [1] is 0.06 µM. Regarding `COc1ccc(C2=N[C@@H](c3ccc(Cl)cc3)[C@@H](c3ccc(Cl)cc3)N2C(=O)N2CCNC(=O)C2)c(OC(C)C)c1` [Nutlin-3], in data set [2] (mid-nanomolar, enantioselective, ref [56]), the “activity towards the p53-MDM2 complex” value is ~ 70 nM.

Take `CC(C)(C)C[C@H]1N[C@@H](C(=O)NCC[C@H](O)CO)[C@H](c2cccc(Cl)c2)[C@@]12C(=O)Nc1cc(Cl)c(F)cc12.Cl` [MI-219]: the “inhibition of complex formation” value in data set [2] (p53-MDM2, ref [58]) was ~ 5 nM.

As usually defined, the Ki is the equilibrium dissociation constant of an inhibitor or competing ligand from its target.
